From patent publication US12090149B2, “SMAD3 inhibitors” (Moexa Pharmaceuticals Limited, priority 2018, dated 2024)
Values joined by “and” are separate entries in the source; they are usually repeats but may differ in a detail not shown here. Equal entries are not always repeated.

Tested on: B16-F10 syngeneic model
Assay: Subcutaneous B16-F10 syngeneic model, tumor growth
Format: in vivo, C57BL/6 mice
Description: In order to evaluate the in vivo efficacy of SIS3 and novel compounds of the present invention, a study has been conducted in treatment of the subcutaneous B16-F10 syngeneic models.
• Animal species and strain: C57BL/6 mice • History of treatment: Naive • Sex, age and weight: Female, 6-8 weeks • Breeder/supplier: Shanghai SLAC Laboratory Animal Co. Ltd • Adaptation: At least 7 days • Room: SPF Room • Room temperature: 20-26° C. • Room relative humidity: 40-70% • Light cycle: Fluorescent light for 12-hour light (08:00-20:00) and 12-hour dark • Animal hosting: 2-5 mice/cage each group • Food: Free access to food • Water: Free access to water (municipal tap water filtered by reverse osmosis or high-pressure sterilizer)
B16-F10 cell was maintained at 37° C. under 5% CO2 in DMEM medium supplemented with 10% FBS and were subsequently cultured within 10 passages before inoculated into the mice.
B16-F10 cells (3×10^5 in 100 μL of serum-free medium) were inoculated to each of C57BL/6 mice via s.c. under anesthesia by 3-4% isoflurane. Each group contains 15 mice.
When average tumor volume reached 35-60 mm^3, 15 mice were randomized into group 6. The day of inoculation was denoted as day 0.
Tumor dimensions were measured on Day 4, 5, 6, 8, 11, 13, 15 and 18, after inoculation in 2 dimensions with calipers.
When required, tumor volume was measured daily. The tumor volume (V) was calculated as follows: V=(length×width^2)/2.
The individual relative tumor volume (RTV) was calculated as follows: RTV=Vt/V0, where Vt was the volume on each day, and V0 was the volume at the beginning of the treatment.
Tumor growth inhibition (TGI), TGI=(1−(Ti−T0)/(Ci−C0))×100%; Ti and Ci as the mean tumor volumes of the treatment and control groups on the measurement day; T0 and C0 as the mean tumor volumes of the treatment and control groups on day 0
Results were expressed as mean±S.E.M. Comparisons between two groups were made by Dunnett's multi-comparison test, p<0.05 were considered as significant.

Q: Which “Tumor Sizes (mm3) Mean” value (10 mg/kg q.d. * 3W i.p., Day 4 (estimated value)) does the source give for `COc1cc2c(cc1OC)CN(C(=O)/C=C/c1c(-c3ccccc3)nc3ccccn13)CC2` [Compound 8, (E)-1-(6,7-dimethoxy-3,4-dihydroisoquinolin-2(1H)-yl)-3-(2-phenylimidazo[1,2-a]pyridin-3-yl)prop-2-en-1-one] here?
A: 0.62 mm3

Q: What about the “Relative tumor volume Mean” value (10 mg/kg q.d. * 3W i.p., Day 4, RTV=Vt/V0) of the same compound?
A: 0.04

Q: And the “Tumor Sizes (mm3) Mean” value (10 mg/kg q.d. * 3W i.p., Day 5 (estimated value))?
A: 0.75 mm3

Q: What about the “Relative tumor volume Mean” value (10 mg/kg q.d. * 3W i.p., Day 5, RTV=Vt/V0) of the same compound?
A: 0.04

Q: What about the “Tumor Sizes (mm3) Mean” value (10 mg/kg q.d. * 3W i.p., Day 6 (estimated value)) of the same compound?
A: 4.31 mm3

Q: And the “Relative tumor volume Mean” value (10 mg/kg q.d. * 3W i.p., Day 6, RTV=Vt/V0)?
A: 0.19

Q: What about the “Tumor Sizes (mm3) Mean” value (10 mg/kg q.d. * 3W i.p., Day 8) of the same compound?
A: 38.42 mm3

Q: And the “Relative tumor volume Mean” value (10 mg/kg q.d. * 3W i.p., Day 8, RTV=Vt/V0)?
A: 1.00

Q: And the “Tumor Sizes (mm3) Mean” value (10 mg/kg q.d. * 3W i.p., Day 11)?
A: 151.84 mm3

Q: What about the “Relative tumor volume Mean” value (10 mg/kg q.d. * 3W i.p., Day 11, RTV=Vt/V0) of the same compound?
A: 4.80

Q: And the “Tumor growth inhibition (%) TGI” value (10 mg/kg q.d. * 3W i.p., Day 11, calculated based on tumor volume of Day 8)?
A: 29%

Q: What about the “Tumor Sizes (mm3) Mean” value (10 mg/kg q.d. * 3W i.p., Day 13) of the same compound?
A: 416.04 mm3

Q: What about the “Relative tumor volume Mean” value (10 mg/kg q.d. * 3W i.p., Day 13, RTV=Vt/V0) of the same compound?
A: 12.93

Q: What about the “Tumor growth inhibition (%) TGI” value (10 mg/kg q.d. * 3W i.p., Day 13, calculated based on tumor volume of Day 8) of the same compound?
A: 30%

Q: And the “Tumor Sizes (mm3) Mean” value (10 mg/kg q.d. * 3W i.p., Day 15)?
A: 816.24 mm3

Q: What about the “Relative tumor volume Mean” value (10 mg/kg q.d. * 3W i.p., Day 15, RTV=Vt/V0) of the same compound?
A: 26.76

Q: What about the “Tumor growth inhibition (%) TGI” value (10 mg/kg q.d. * 3W i.p., Day 15, calculated based on tumor volume of Day 8) of the same compound?
A: 23%

Q: And the “Tumor Sizes (mm3) Mean” value (10 mg/kg q.d. * 3W i.p., Day 18)?
A: 2500.45 mm3

Q: What about the “Relative tumor volume Mean” value (10 mg/kg q.d. * 3W i.p., Day 18, RTV=Vt/V0) of the same compound?
A: 93.48

Q: And the “Tumor growth inhibition (%) TGI” value (10 mg/kg q.d. * 3W i.p., Day 18, calculated based on tumor volume of Day 8)?
A: 11%

Q: And the “Tumor Sizes (mm3) Mean” value (30 mg/kg q.d. * 3W i.p., Day 4 (estimated value))?
A: 0.36 mm3

Q: And the “Relative tumor volume Mean” value (30 mg/kg q.d. * 3W i.p., Day 4, RTV=Vt/V0)?
A: 0.01

Q: And the “Tumor Sizes (mm3) Mean” value (30 mg/kg q.d. * 3W i.p., Day 5 (estimated value))?
A: 0.56 mm3

Q: And the “Relative tumor volume Mean” value (30 mg/kg q.d. * 3W i.p., Day 5, RTV=Vt/V0)?
A: 0.01

Q: What about the “Tumor Sizes (mm3) Mean” value (30 mg/kg q.d. * 3W i.p., Day 6 (estimated value)) of the same compound?
A: 5.33 mm3

Q: And the “Relative tumor volume Mean” value (30 mg/kg q.d. * 3W i.p., Day 6, RTV=Vt/V0)?
A: 0.16

Q: And the “Tumor Sizes (mm3) Mean” value (30 mg/kg q.d. * 3W i.p., Day 8)?
A: 47.99 mm3

Q: And the “Relative tumor volume Mean” value (30 mg/kg q.d. * 3W i.p., Day 8, RTV=Vt/V0)?
A: 1.00

Q: And the “Relative tumor volume Mean” value (30 mg/kg q.d. * 3W i.p., Day 11, RTV=Vt/V0)?
A: 3.76

Q: What about the “Tumor growth inhibition (%) TGI” value (30 mg/kg q.d. * 3W i.p., Day 11, calculated based on tumor volume of Day 8) of the same compound?
A: 26%

Q: What about the “Tumor Sizes (mm3) Mean” value (30 mg/kg q.d. * 3W i.p., Day 11, listed as MO-00005) of the same compound?
A: 165.30 mm3 and 165.3 mm3

Q: And the “Tumor Sizes (mm3) Mean” value (30 mg/kg q.d. * 3W i.p., Day 13)?
A: 376.62 mm3

Q: What about the “Relative tumor volume Mean” value (30 mg/kg q.d. * 3W i.p., Day 13, RTV=Vt/V0) of the same compound?
A: 10.44

Q: What about the “Tumor Sizes (mm3) Mean” value (30 mg/kg q.d. * 3W i.p., Day 15) of the same compound?
A: 794.11 mm3

Q: What about the “Relative tumor volume Mean” value (30 mg/kg q.d. * 3W i.p., Day 15, RTV=Vt/V0) of the same compound?
A: 21.61

Q: What about the “Tumor Sizes (mm3) Mean” value (30 mg/kg q.d. * 3W i.p., Day 18) of the same compound?
A: 2303.09 mm3

Q: What about the “Relative tumor volume Mean” value (30 mg/kg q.d. * 3W i.p., Day 18, RTV=Vt/V0) of the same compound?
A: 63.87

Q: What about the “Relative tumor volume Mean” value (100 mg/kg q.d. * 3W i.p. (group 6), Day 8, RTV=Vt/V0) of the same compound?
A: 1.00

Q: And the “Relative tumor volume Mean” value (100 mg/kg q.d. * 3W i.p. (group 6), Day 11, RTV=Vt/V0)?
A: 3.70

Q: And the “Tumor growth inhibition (%) TGI” value (100 mg/kg q.d. * 3W i.p. (group 6), Day 11, calculated based on tumor volume of Day 8)?
A: 29%

Q: And the “Tumor Sizes (mm3) Mean” value (100 mg/kg q.d. * 3W i.p. (group 6), Day 11, listed as MO-00005)?
A: 155.10 mm3 and 155.1 mm3

Q: And the “Tumor Sizes (mm3) Mean” value (100 mg/kg q.d. * 3W i.p. (group 6), Day 13)?
A: 335.85 mm3

Q: And the “Relative tumor volume Mean” value (100 mg/kg q.d. * 3W i.p. (group 6), Day 13, RTV=Vt/V0)?
A: 7.98
